# In paper PMC9495854, “Novel Phenothiazine/Donepezil-like Hybrids Endowed with Antioxidant Activity for a Multi-Target Approach to the Therapy of Alzheimer’s Disease” (Antioxidants, 2022):
# Tests used:
# Aβ1-40 aggregation = target: T1, Aβ1-40 aggregation (Homo sapiens, UniProt P05067); assay: Inhibition of Aβ40 aggregation, ThT fluorescence; type: biochemical; settings: inhibitor 10 µM, Aβ40 30 µM, PBS pH 7.4, 2% HFIP, 2 h 25 °C, mean ± SEM; for inhibition at 10 µM: read-out: Aβ1-40 Aggregation (I% at 10 µM)
# T1 construct: purchased EZBiolab
# Description: ThT fluorescence in the presence of Aβ was measured for each compound according a previously described procedure. The samples were co-incubated and mixed in 96-well black, non-binding microplates (Greiner Bio-One GmbH, Frickenhausen, Germany), incubating Aβ40 (EZBiolab, Carmel, IN, USA) at a final concentration of 30 µM with each inhibitors at a final concentration of 10 µM in PBS (pH 7.4) containing 2% 1,1,1,3,3,3-hexafluoro-2-propanol (HFIP). After 2 h at 25 °C, a 25 µM ThT solution was added and fluorescence was determined using the multi-plate reader Tecan Infinite M1000 Pro (Tecan, Cernusco S.N., Italy). The results are reported as mean of three independent experiments ± SEM [13].
# FAAH Human recombinant = target: T2, FAAH Human recombinant (Homo sapiens, UniProt O00519); assay: FAAH inhibition, fluorometric assay; type: biochemical; settings: mean ± SEM; read-out: hFAAH (IC50)
# T2 construct: purchased Cayman Chemical
# T2 sequence (O00519 1-579): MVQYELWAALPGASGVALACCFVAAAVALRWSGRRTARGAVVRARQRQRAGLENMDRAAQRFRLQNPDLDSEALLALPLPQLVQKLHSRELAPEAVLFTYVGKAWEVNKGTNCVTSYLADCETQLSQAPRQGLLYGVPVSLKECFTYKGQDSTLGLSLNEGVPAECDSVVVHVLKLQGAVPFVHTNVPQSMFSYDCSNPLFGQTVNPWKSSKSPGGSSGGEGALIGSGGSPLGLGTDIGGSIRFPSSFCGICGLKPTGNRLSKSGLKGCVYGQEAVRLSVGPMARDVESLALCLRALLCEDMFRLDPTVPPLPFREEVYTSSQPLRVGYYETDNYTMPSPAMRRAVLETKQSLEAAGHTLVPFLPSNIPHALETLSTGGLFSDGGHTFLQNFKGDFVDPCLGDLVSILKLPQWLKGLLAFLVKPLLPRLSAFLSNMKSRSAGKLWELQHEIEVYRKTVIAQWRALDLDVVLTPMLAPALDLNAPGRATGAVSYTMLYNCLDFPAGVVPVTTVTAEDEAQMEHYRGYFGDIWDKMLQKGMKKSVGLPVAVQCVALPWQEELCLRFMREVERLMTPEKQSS
# Description: The fatty acid amide hydrolase inhibition was measured for the final compounds using 96-well black flat-bottom microtiter NBS plates (COSTAR flat black). The total volume was 150 µL: the single hybrid was pre-incubated at different concentrations with the enzyme (FAAH Human recombinant, Cayman Chemical, Ann Arbor, MI, USA) in the specific fluorometric assay buffer (tris-HCl 125 mM, Na2EDTA · 2H2O 1 mM, pH = 9.0) for ten minutes at RT, using an orbital shaker. A 50 μL solution of the substrate (7-amino-4-methyl-2H-1-benzopyran-2-one-5Z,8Z,11Z,14Z-eicosatetraen-amide, at a final concentration of 5 µM) was then added. The plates were then incubated for 1 h at 37 °C in a Tecan Infinite M1000 Pro (Tecan, Cernusco S.N., Italy), reading fluorescence values from each well every 30s (λex = 340 nm, λem = 450 nm). The inhibitor activity was expressed as relative fluorescence units (RFU), using the values obtained from control wells lacking the inhibitor and blank wells lacking both inhibitor and enzyme to calculate percent inhibition values for each well. IC50 values are expressed as mean ± SEM of at least two independent measurements performed in triplicate.
# SH-SY5Y cells = assay: DCFH-DA cell-based antioxidant assay (H2O2-induced oxidation), SH-SY5Y; settings: Homo sapiens, SHSY-5Y, 1 h compound, 100 μM H2O2, read-out: DCFDH-DA IC50 ± SEM SHSY-5Y
# Description: HepG2 cells were cultured in Eagle’s Minimum Essential Medium (MEM, Euroclone S.p.A., Pero, MI, Italy), supplemented with 10% Fetal Bovine Serum (FBS, Euroclone S.p.A., Pero, MI, Italy), 1% L-glutamine (Euroclone S.p.A., Pero, MI, Italy), 100 U/mL penicillin/streptomycin (Euroclone S.p.A., Pero, MI, Italy), 1% Non-Essential Amino Acids (NEAA, Euroclone S.p.A., Pero, MI, Italy). SH-SY5Y cells were grown in a 1:1 mixture of Dulbecco’s modified Eagle’s medium (DMEM)—high glucose (Euroclone S.p.A., Pero, MI, Italy) and Ham’s F12 Medium (Euroclone S.p.A., Pero, MI, Italy) supplemented with 10% FBS, 1% L-glutamine and 100 U/mL penicillin/streptomycin. For cell assays, cells were trypsinized using Trypsin-EDTA 1X in PBS (Euroclone S.p.A., Pero, MI, Italy).
# According to a slightly modified procedure already reported in the literature, the generation of ROS was determined using an oxidation-sensitive fluorescent probe, 2′,7′-dichlorodihydrofluorescein diacetate (DCFH-DA, D6665; Sigma-Aldrich, St. Louis, MO, USA). Briefly, viable cells were seeded in a black 96-well cell culture plate (Costar, Sigma-Aldrich, St. Louis, MO, USA) and after 24 h were incubated with different concentrations (0.1–100 µM) of each compound for 1 h at 37 °C in 5% CO2. […] After washing using PBS, 100 μM H2O2 in medium without serum was added to each well and the cells were incubated for an additional 30 min. The formation of fluorescent dichlorofluorescein (DCF) due to oxidation of DCFH in the presence of ROS, was read at 530 nm using a microplate reader Tecan Infinite M1000 Pro (Tecan, Cernusco S.N., Italy) and DMSO medium was used for control cells. The results are expressed as mean ± SEM of at least three independent measurements in triplicate.
# T1 sequence (P05067 672-711 limits assumed): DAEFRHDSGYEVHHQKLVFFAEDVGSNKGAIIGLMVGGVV
Compound,inhibition at 10 µM (Aβ1-40 aggregation) [%],IC50 (FAAH Human recombinant) [µM],IC50 (SH-SY5Y cells) [µM],Aβ1-40 Aggregation (I% at 10 µM) (Aβ1-40 aggregation)
"O=C(NCC1CCN(Cc2ccccc2)CC1)c1ccc2c(c1)Nc1ccccc1S2 [Compound 11a, N-((1-Benzylpiperidin-4-yl)methyl)-10H-phenothiazine-2-carboxamide]",8,22.6 ± 1.6,14.1 ± 0.6,
"Cc1ccccc1CN1CCN(CCNC(=O)c2ccc3c(c2)Nc2ccccc2S3)CC1 [Compound 12c, N-(2-(4-(2-Methylbenzyl)piperazin-1-yl)ethyl)-10H-phenothiazine-2-carboxamide]",,7.33 ± 0.86,11.3 ± 0.21,
"O=C(NCCN1CCN(Cc2ccccc2Cl)CC1)c1ccc2c(c1)Nc1ccccc1S2 [Compound 12b, N-(2-(4-(2-Chlorobenzyl)piperazin-1-yl)ethyl)-10H-phenothiazine-2-carboxamide]",27,6.31 ± 1.28,9.1 ± 1.42,
"O=C(NCC1CCN(Cc2ccccc2Cl)CC1)c1ccc2c(c1)Nc1ccccc1S2 [Compound 11b, N-((1-(2-Chlorobenzyl)piperidin-4-yl)methyl)-10H-phenothiazine-2-carboxamide]",20,3.8 ± 0.9,1.32 ± 0.2,
"COc1cccc(CN2CCC(CNC(=O)c3ccc4c(c3)Nc3ccccc3S4)CC2)c1 [Compound 11e, N-((1-(3-Methoxybenzyl)piperidin-4-yl)methyl)-10H-phenothiazine-2-carboxamide]",24,13 ± 3.4,1.12 ± 0.9,
"CC(=O)N1c2ccccc2Sc2ccc(C(=O)NCCN3CCN(Cc4ccccc4Cl)CC3)cc21 [Compound 13, 10-Acetyl-N-(2-(4-(2-chlorobenzyl)piperazin-1-yl)ethyl)-10H-phenothiazine-2-carboxamide]",,16.9 ± 4.4,1.22 ± 0.2,lack of activity
"O=C(NCCN1CCN(Cc2ccccc2)CC1)c1ccc2c(c1)Nc1ccccc1S2 [Compound 12a, N-(2-(4-Benzylpiperazin-1-yl)ethyl)-10H-phenothiazine-2-carboxamide]",43,41.4 ± 0.9,2.01 ± 0.61,
"O=C(NCC1CCN(Cc2ccccc2F)CC1)c1ccc2c(c1)Nc1ccccc1S2 [Compound 11d, N-((1-(2-Fluorobenzyl)piperidin-4-yl)methyl)-10H-phenothiazine-2-carboxamide]",43,5.06 ± 0.4,1.43 ± 0.5,
"Cc1ccccc1CN1CCC(CNC(=O)c2ccc3c(c2)Nc2ccccc2S3)CC1 [Compound 11c, N-((1-(2-Methylbenzyl)piperidin-4-yl)methyl)-10H-phenothiazine-2-carboxamide]",47,3.08 ± 0.44,2.11 ± 0.4,
"O=C(NCCN1CCN(Cc2ccccc2F)CC1)c1ccc2c(c1)Nc1ccccc1S2 [Compound 12d, N-(2-(4-(2-Fluorobenzyl)piperazin-1-yl)ethyl)-10H-phenothiazine-2-carboxamide]",60,9.65 ± 2.45,11.7 ± 1.11,
